Reference: patent US10610529B2, “Trabectedin-inclusive injectable pharmaceutical composition for gastrointestinal external use and a method for manufacturing the same” (priority 2016, dated 2020)

Key:
[1] = cited from earlier work
[2] = Measurement of related substances and placement stability of lyophilized formulation (accelerated and long-term conditions); type: physicochemical; details: API, no storage item given
Method: The above intermediate solution was lyophilized to prepare a lyophilized trabectedin formulation. The appearance, water content, reconstitution and pH were investigated. The change of related substances after lyophilization and the placement stability under accelerated conditions (25° C. 60% RH) and long-term conditions (2-8° C.) were measured.
The above lyophilized formulations were stored under accelerated conditions (25° C. 60% RH), and the related substances and water content were measured at different time points.

[3] = cited from earlier work; remark: listed apart in the source
[4] = High-temperature stability of lyophilized products comprising different ratios of glucose/dextran 40; type: physicochemical; details: API, no storage time given

COc1cc2c(cc1O)CCN[C@]21CS[C@@H]2c3c(OC(C)=O)c(C)c4c(c3[C@H](COC1=O)N1[C@@H]2[C@H]2c3c(cc(C)c(OC)c3O)C[C@@H]([C@@H]1O)N2C)OCO4 [API, Trabectedin]
solubility in pure water [1]: limited | ET-745 (%) [2]: 0.25% | ET-759B (%) [2]: 0.31% | Total impurities (%) [2]: 2.56% | storage time ([3]; refrigerated at 5° C.): ≤ 1 month | thermal stability ([3]; room temperature (25° C.)): rapidly degrades | ET-745 (%) [4]: 0.25% | ET-759B (%) [4]: 0.31% | Total impurities (%) [4]: 2.56%
